Source: patent publication US8580995B2, “Lysine-based prodrugs of aspartyl protease inhibitors and processes for their preparation” (priority 2005, dated 2013)

Assay: Bioavailability: plasma concentration after single oral administration to rats
Format: in vivo, male Sprague-Dawley rats
Settings: for AUC: 50 mg/Kg po, 3 rats; for Detection of the administered phosphate compound itself in the blood samples / Delivery of parent drug (PL-100, PL-337) by aqueous dosing compared to non-aqueous formulations of PL-100 and PL-337: 50 mg/kg po; for Detection of the administered phosphate compound itself in the blood samples: delivered as aqueous solutions, HPLC-MS of plasma; for Delivery of parent drug (PL-100, PL-337) by aqueous dosing compared to non-aqueous formulations of PL-100 and PL-337: rats
Procedure: To assess the extent of in vivo cleavage of the phosphate group from the putative compounds, PL-100, PL-462 (based on PL-100), PL-337 and PL-515 (based on PL-337) compounds were administered per os (po) (50 mg/kg) to male Sprague-Dawley rats and their plasma concentration measured at different time intervals post-administration. All test articles (PL-100, PL-462, PL-337 and PL-515) were prepared in different vehicle at the final concentration of 25 mg/mL. The vehicle composition is as follows: (1) 20% ethanol; 50% propylene glycol; 0.05% w/v Tween 20 and water (Mix); (2) PBS buffer (PBS). Test articles were administered to male Sprague-Dawley rats at a single oral dose of 50 mg/kg. Each article was tested in three rats. Blood samples (0.2-0.3 mL) were collected at the post-dose time of 10, 20, 40, 60, 120, 180 and 360 minutes. The harvested blood was centrifuged to isolate plasma. The resulting plasma was separated and stored at −70° C. Plasma samples together with standards and quality control samples were treated to precipitate proteins, then analyzed by HPLC-MS, for the presence of PL-462, PL-100, PL-515 and PL-337.

[1] = vehicle Mix (20% ethanol; 50% propylene glycol; 0.05% w/v Tween 20 and water)
[2] = vehicle PBS, parent drug (PL-100 or PL-337) detected in plasma after dosing the phosphate compound

SMILES	AUC [1] [μg/hr*ml]	AUC [2] [μg/hr*ml]	Detection of the administered phosphate compound itself in the blood samples	Delivery of parent drug (PL-100, PL-337) by aqueous dosing compared to non-aqueous formulations of PL-100 and PL-337
COC(=O)N[C@H](C(=O)NCCCC[C@@H](CO)N(CC(C)C)S(=O)(=O)c1ccc(N)cc1)C(c1ccccc1)c1ccccc1 [PL-100, (1S,5S)-(1-{5-[(4-amino-benzenesulfonyl)-isobutyl-amino]-6-hydroxy-hexylcarbamoyl}-2,2-diphenyl-ethyl)-carbamic acid methyl ester]	0.675 ± 0.171			
COC(=O)N[C@H](C(=O)NCCCC[C@@H](COP(=O)([O-])[O-])N(CC(C)C)S(=O)(=O)c1ccc(N)cc1)C(c1ccccc1)c1ccccc1.[Na+].[Na+] [PL-462, (1S,5S)-(1-{5-[(4-amino-benzenesulfonyl)-isobutyl-amino]-6-phosphonooxy-hexylcarbamoyl}-2,2-diphenyl-ethyl)-carbamic acid methyl ester sodium salt]		0.816 ± 0.295	None of the PL-462 and PL-515 compounds, delivered as aqueous solutions, are detected in the blood samples	equivalent to slightly superior delivery
COC(=O)N[C@H](C(=O)NCCCC[C@@H](COP(=O)(O)O)N(CC(C)C)S(=O)(=O)c1ccc(N)c(F)c1)C(c1ccccc1)c1ccccc1 [PL-515, (1S,5S)-(1-{5-[(4-amino-3-fluoro-benzenesulfonyl)-isobutyl-amino]-6-phosphonooxy-hexylcarbamoyl}-2,2-diphenyl-ethyl)-carbamic acid methyl ester]		1.075 ± 0.625	None of the PL-462 and PL-515 compounds, delivered as aqueous solutions, are detected in the blood samples	equivalent to slightly superior delivery
COC(=O)N[C@H](C(=O)NCCCC[C@@H](CO)N(CC(C)C)S(=O)(=O)c1ccc(N)c(F)c1)C(c1ccccc1)c1ccccc1 [PL-337, (1-{5-[(4-amino-3-fluoro-benzenesulfonyl)-isobutyl-amino]-6-hydroxy-hexylcarbamoyl}-2,2-diphenyl-ethyl)-carbamic acid methyl ester]	1.180 ± 0.196			
